Experimental data as given in ChEMBL document CHEMBL1138336, “Design and synthesis of novel and potent amide linked PPARgamma/delta dual agonists” (Bioorg Med Chem Lett, 2007).

Assays:
[1] = target: T1, Peroxisome proliferator-activated receptor delta (Homo sapiens, UniProt Q03181)
T1 sequence (Q03181 whole entry): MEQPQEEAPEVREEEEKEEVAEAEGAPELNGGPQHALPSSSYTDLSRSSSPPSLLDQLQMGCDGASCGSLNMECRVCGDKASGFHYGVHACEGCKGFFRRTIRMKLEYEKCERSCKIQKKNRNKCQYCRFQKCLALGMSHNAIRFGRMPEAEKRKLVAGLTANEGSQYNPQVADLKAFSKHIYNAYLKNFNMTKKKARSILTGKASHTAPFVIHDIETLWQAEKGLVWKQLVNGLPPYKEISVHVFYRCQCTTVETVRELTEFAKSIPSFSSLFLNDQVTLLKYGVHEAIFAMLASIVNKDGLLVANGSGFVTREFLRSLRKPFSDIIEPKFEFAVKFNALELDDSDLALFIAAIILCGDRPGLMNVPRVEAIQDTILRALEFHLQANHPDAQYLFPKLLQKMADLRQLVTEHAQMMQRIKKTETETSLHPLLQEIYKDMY

[2] = target: T1, Peroxisome proliferator-activated receptor delta; remark: listed apart in the source
[3] = target: T2, Peroxisome proliferator-activated receptor alpha (Homo sapiens, UniProt Q07869)
T2 sequence (Q07869 whole entry): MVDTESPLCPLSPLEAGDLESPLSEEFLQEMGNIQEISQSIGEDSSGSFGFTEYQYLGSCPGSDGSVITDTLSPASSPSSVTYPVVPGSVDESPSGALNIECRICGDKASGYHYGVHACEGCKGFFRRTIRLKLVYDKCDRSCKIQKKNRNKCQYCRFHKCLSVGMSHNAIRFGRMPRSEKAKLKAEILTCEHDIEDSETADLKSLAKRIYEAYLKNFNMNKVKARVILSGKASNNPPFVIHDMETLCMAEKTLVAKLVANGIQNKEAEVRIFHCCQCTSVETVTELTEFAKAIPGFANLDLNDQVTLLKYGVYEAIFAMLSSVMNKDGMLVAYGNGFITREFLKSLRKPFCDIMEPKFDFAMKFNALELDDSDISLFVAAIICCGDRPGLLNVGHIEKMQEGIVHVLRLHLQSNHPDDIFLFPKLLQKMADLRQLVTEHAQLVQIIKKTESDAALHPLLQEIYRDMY

[4] = target: T2, Peroxisome proliferator-activated receptor alpha; remark: listed apart in the source
Rattus norvegicus = organism: Rattus norvegicus; test: animal or person; type: functional; conditions: ZDF, po, 168 h

Structure (SMILES)	IC50 [1] [nM]	EC50 [2] [nM]	EC50 [3] [nM]	IC50 [4] [nM]	ED50 (Rattus norvegicus) [mg/kg]
Cc1cc(Oc2cccc(CNC(=O)c3c(C)c4cc(Cl)ccc4n3C)c2)ccc1CCC(=O)O	3	4	2650	> 10000	–
CCc1cc(Oc2cc(F)cc([C@@H](C)NC(=O)c3sc4ccc(Cl)cc4c3C)c2)ccc1CCC(=O)O	–	–	–	9340	–
CCc1cc(Oc2cc(F)cc([C@@H](C)NC(=O)c3c(C)c4cc(Cl)ccc4n3C)c2)ccc1CCC(=O)O	–	–	2820	10300	0.82
Cc1cc(Oc2cccc(CNC(=O)c3ccc(C(F)(F)F)cc3C)c2)ccc1CCC(=O)O	5	33	2890	> 10000	–
Cc1cc(Oc2cccc(CNC(=O)c3cc4cc(Cl)ccc4n3C)c2)ccc1CCC(=O)O	3	87	2740	> 10000	–
